Consider 27 compounds from patent publication US10407409B2, “6-(5-hydroxy-1H-pyrazol-1-yl)nicotinamide inhibitors of PHD” (Takeda Pharmaceutical Company Limited, priority 2013, dated 2019).

Each structure is given as a SMILES string.

Assay [1] concerns the target PHD2 enzyme (residues 181-417) (Homo sapiens (Human), UniProt Q9GZT9). Put plainly: Inhibition of PHD enzyme (LC/MS peptide hydroxylation assay). In kind it is biochemical. The following applies: PHD2 (residues 181-417) 5 nM, 60 min pre-incubation; -log(IC50), IC50 molar. Summed up:
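Hydroxylated peptide quantified by LC/MS after 60 min turnover of 1 uM biotinylated peptide with 2 uM 2-oxoglutarate and 1 mM ascorbate, stopped by excess tight-binding inhibitor. Beforehand, 5 nM enzyme and compound were preincubated 60 min at RT, pH 7.3 HEPES/KCl/TCEP/FeCl2/BSA buffer. Values as pIC50 (−log molar IC50).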

The test system of assay [2] is HIF1a protein in H9c2 rat cardiomyocytes. Put plainly: Cell-based HIF-alpha stabilization assay (inhibition of PHD in cells). As to conditions: Rattus norvegicus, H9c2, 24 h, 24 hrs compound incubation, HIF1a protein by ELISA, read-out: Inhibition of PHD in cells (pEC50) (converted). Summed up:
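HIF1a stabilization was measured by ELISA on lysates of H9c2 rat cardiomyocytes after 24 h exposure to 11 serial compound concentrations, expressed relative to the desferrioxamine maximum. Curve fits gave EC50. EC50pos denotes the concentration producing half the desferrioxamine maximal response.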

PHD2 enzyme (residues 181-417), sequence (Q9GZT9 181-417): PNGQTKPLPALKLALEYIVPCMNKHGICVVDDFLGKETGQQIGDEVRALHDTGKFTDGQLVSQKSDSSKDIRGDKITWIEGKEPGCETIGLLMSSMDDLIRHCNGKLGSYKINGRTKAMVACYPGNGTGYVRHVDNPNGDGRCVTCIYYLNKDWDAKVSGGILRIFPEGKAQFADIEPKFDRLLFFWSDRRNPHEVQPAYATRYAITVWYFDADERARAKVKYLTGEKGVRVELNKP

Take `COCCN1CCC(N(C)C(=O)c2ccc(-n3ncc(-c4ccc(C#N)cc4C)c3O)nc2)CC1` [Example 427, 6-(4-(4-cyano-2-methylphenyl)-5-hydroxy-1H-pyrazol-1-yl)-N-(1-(2-methoxyethyl)piperidin-4-yl)-N-methylnicotinamide]: the “PHD Inhibition (pIC50)” value in assay [1] amounted to 7.83. Also, the EC50 in assay [2] was 646 nM.

With `Cc1cc(C#N)ccc1-c1cnn(-c2ccc(C(=O)N[C@H]3CC[C@H](C)CC3)cn2)c1O` [Example 183, 6-(4-(4-cyano-2-methylphenyl)-5-hydroxy-1H-pyrazol-1-yl)-N-((1r,4r)-4-methylcyclohexyl)nicotinamide], in assay [1], the “PHD Inhibition (pIC50)” value worked out at 7.9. In assay [2], the EC50 was 646 nM.

In the case of `Cc1cc(C#N)ccc1-c1cnn(-c2ccc(C(=O)N3CCC[C@@H]3CN3CCCC3)cn2)c1O` [Example 365, (R)-4-(5-hydroxy-1-(5-(2-(pyrrolidin-1-ylmethyl)pyrrolidine-1-carbonyl)pyridin-2-yl)-1H-pyrazol-4-yl)-3-methylbenzonitrile], the “PHD Inhibition (pIC50)” value in assay [1] was 7.80. Also, in assay [2], the EC50 is 417 nM.

For the compound `CCN1CCN(C(=O)c2ccc(-n3ncc(-c4ccc(C#N)c(C)c4C)c3O)nc2)CC1` [Example 309, 4-(1-(5-(4-ethylpiperazine-1-carbonyl)pyridin-2-yl)-5-hydroxy-1H-pyrazol-4-yl)-2,3-dimethylbenzonitrile], the “PHD Inhibition (pIC50)” value in assay [1] worked out at 7.97. Moreover, the EC50 in assay [2] is 2630 nM.

With `Cc1cc(C#N)ccc1-c1cnn(-c2ccc(C(=O)NCCCN3CCCC3)cn2)c1O` [Example 105, 6-(4-(4-cyano-2-methylphenyl)-5-hydroxy-1H-pyrazol-1-yl)-N-(3-(pyrrolidin-1-yl)propyl)nicotinamide], in assay [1], the “PHD Inhibition (pIC50)” value was determined as 8. The EC50 in assay [2] was 61.7 nM.

In the case of `COCCC1(NC(=O)c2ccc(-n3ncc(-c4ccc(C#N)cc4OC)c3O)nc2)CC1` [Example 168, 6-(4-(4-cyano-2-methoxyphenyl)-5-hydroxy-1H-pyrazol-1-yl)-N-(1-(2-methoxyethyl)cyclopropyl)nicotinamide], the “PHD Inhibition (pIC50)” value in assay [1] came out at 8.1. Besides, in assay [2], the EC50 was 437 nM.

Consider `Cc1cc(C#N)ccc1-c1cnn(-c2ccc(C(=O)N[C@H]3CC[C@@H](O)CC3)cn2)c1O` [Example 131, 6-(4-(4-cyano-2-methylphenyl)-5-hydroxy-1H-pyrazol-1-yl)-N-((1 s,4s)-4-hydroxycyclohexyl)nicotinamide], for which the “PHD Inhibition (pIC50)” value in assay [1] came out at 7.21. The EC50 in assay [2] is 257 nM.

Regarding `N#Cc1ccc(-c2cnn(-c3ccc(C(=O)NCC4CCOCC4)cn3)c2O)cc1F` [Example 189, 6-(4-(4-cyano-3-fluorophenyl)-5-hydroxy-1H-pyrazol-1-yl)-N-((tetrahydro-2H-pyran-4-yl)methyl)nicotinamide], the “PHD Inhibition (pIC50)” value in assay [1] came out at 7.49. Further, the EC50 in assay [2] is 4680 nM.

Turning to `COCC1(CNC(=O)c2ccc(-n3ncc(-c4ccc(C#N)cc4C)c3O)nc2)CCCC1` [Example 143, 6-(4-(4-cyano-2-methylphenyl)-5-hydroxy-1H-pyrazol-1-yl)-N-((1-(methoxymethyl)cyclopentyl)methyl)nicotinamide], in assay [1], the “PHD Inhibition (pIC50)” value is on record as 7.9. Further, the EC50 in assay [2] is 891 nM.

As to `Cc1cc(C#N)ccc1-c1cnn(-c2ccc(C(=O)N(C)C3CCN(C)CC3)cn2)c1O` [Example 289, 6-(4-(4-cyano-2-methylphenyl)-5-hydroxy-1H-pyrazol-1-yl)-N-methyl-N-(1-methylpiperidin-4-yl)nicotinamide], the “PHD Inhibition (pIC50)” value in assay [1] was found to be 8.03. In assay [2], the EC50 is 1230 nM.

Consider `CCN1CCCC1CN(C)C(=O)c1ccc(-n2ncc(-c3ccc(C#N)cc3C)c2O)nc1` (stereo not drawn) [Example 355, 6-(4-(4-cyano-2-methylphenyl)-5-hydroxy-1H-pyrazol-1-yl)-N-((1-ethylpyrrolidin-2-yl)methyl)-N-methylnicotinamide], for which, in assay [1], the “PHD Inhibition (pIC50)” value is on record as 7.94. Besides, the EC50 in assay [2] is 724 nM.

Turning to `Cc1cc(C#N)ccc1-c1cnn(-c2ccc(C(=O)NCC3CCC3)cn2)c1O` [Example 180, 6-(4-(4-cyano-2-methylphenyl)-5-hydroxy-1H-pyrazol-1-yl)-N-(cyclobutylmethyl)nicotinamide], the “PHD Inhibition (pIC50)” value in assay [1] was 8.2. Moreover, in assay [2], the EC50 is 398 nM.

On to `COc1cc(-c2cnn(-c3ccc(C(=O)NC4CC4)cn3)c2O)ccn1` [Example 204, N-cyclopropyl-6-(5-hydroxy-4-(2-methoxypyridin-4-yl)-1H-pyrazol-1-yl)nicotinamide], for which the “PHD Inhibition (pIC50)” value in assay [1] is listed as 7.08. Moreover, the EC50 in assay [2] is 468 nM.

With `Cc1cc(C#N)ccc1-c1cnn(-c2ccc(C(=O)N3CC[C@@H]4CN(C)C[C@@H]4C3)cn2)c1O` [Example 417, 4-(5-hydroxy-1-(5-((3aR,7aS)-2-methyloctahydro-1H-pyrrolo[3,4-c]pyridine-5-carbonyl)pyridin-2-yl)-1H-pyrazol-4-yl)-3-methylbenzonitrile], in assay [1], the “PHD Inhibition (pIC50)” value is on record as 7.87. For the same compound, the EC50 in assay [2] was 575 nM.

As to `Cn1ccc(-c2cnn(-c3ccc(C(=O)NCC4CCOCC4)cn3)c2O)cc1=O` [Example 211, 6-(5-hydroxy-4-(1-methyl-2-oxo-1,2-dihydropyridin-4-yl)-1H-pyrazol-1-yl)-N-((tetrahydro-2H-pyran-4-yl)methyl)nicotinamide], in assay [1], the “PHD Inhibition (pIC50)” value is given as 6.47. Besides, in assay [2], the EC50 was 50100 nM.

Consider `Cc1c(-c2cnn(-c3ccc(C(=O)N4CC(N5CCCCC5)C4)cn3)c2O)ccc(C#N)c1F` [Example 335, 2-fluoro-4-(5-hydroxy-1-(5-(3-(piperidin-1-yl)azetidine-1-carbonyl)pyridin-2-yl)-1H-pyrazol-4-yl)-3-methylbenzonitrile], for which the “PHD Inhibition (pIC50)” value in assay [1] was determined as 8.43. Moreover, the EC50 in assay [2] was 1320 nM.

As to `CC1(CNC(=O)c2ccc(-n3ncc(-c4ccc(C#N)cc4)c3O)nc2)COC1` [Example 261, 6-(4-(4-cyanophenyl)-5-hydroxy-1H-pyrazol-1-yl)-N-((3-methyloxetan-3-yl)methyl)nicotinamide], the “PHD Inhibition (pIC50)” value in assay [1] turned out to be 7.39. In assay [2], the EC50 was 1120 nM.

`Cc1cc(C#N)ccc1-c1cnn(-c2ccc(C(=O)N3CCN(C)CC3)cn2)c1O` [Example 290, 4-(5-hydroxy-1-(5-(4-methylpiperazine-1-carbonyl)pyridin-2-yl)-1H-pyrazol-4-yl)-3-methylbenzonitrile]: the “PHD Inhibition (pIC50)” value in assay [1] is on record as 8.33. Further, the EC50 in assay [2] is 912 nM.

As for `Cc1cc(C#N)ccc1-c1cnn(-c2ccc(C(=O)NC3CN(C)C3)cn2)c1O` [Example 186, 6-(4-(4-cyano-2-methylphenyl)-5-hydroxy-1H-pyrazol-1-yl)-N-(1-methylazetidin-3-yl)nicotinamide], the “PHD Inhibition (pIC50)” value in assay [1] is recorded as 7.8. In addition, the EC50 in assay [2] was 295 nM.

With `Cc1cc(C#N)ccc1-c1cnn(-c2ccc(C(=O)N3CCN4CCC3CC4)cn2)c1O` [Example 428, (S)-4-(1-(5-(1,4-diazabicyclo[3.2.2]nonane-4-carbonyl)pyridin-2-yl)-5-hydroxy-1H-pyrazol-4-yl)-3-methylbenzonitrile], the “PHD Inhibition (pIC50)” value in assay [1] amounted to 7.88. For the same compound, the EC50 in assay [2] was 501 nM.

For the compound `N#Cc1ccc(-c2cnn(-c3ccc(C(=O)NCc4ccccc4)cn3)c2O)c(F)c1` [Example 220, N-benzyl-6-(4-(4-cyano-2-fluorophenyl)-5-hydroxy-1H-pyrazol-1-yl)nicotinamide], the “PHD Inhibition (pIC50)” value in assay [1] was determined as 7.13. Also, the EC50 in assay [2] is 1070 nM.

Take `COC(C)CCNC(=O)c1ccc(-n2ncc(-c3ccc(C#N)cc3C)c2O)nc1` (stereo not drawn) [Example 181, 6-(4-(4-cyano-2-methylphenyl)-5-hydroxy-1H-pyrazol-1-yl)-N-(3-methoxybutyl)nicotinamide]: the “PHD Inhibition (pIC50)” value in assay [1] is reported as 8.2. Besides, in assay [2], the EC50 was 324 nM.

Consider `CCN1CCC(N(C)C(=O)c2ccc(-n3ncc(-c4ccc(C#N)cc4C)c3O)nc2)CC1` [Example 425, 6-(4-(4-cyano-2-methylphenyl)-5-hydroxy-1H-pyrazol-1-yl)-N-(1-ethylpiperidin-4-yl)-N-methylnicotinamide], for which the “PHD Inhibition (pIC50)” value in assay [1] was 7.74. For the same compound, the EC50 in assay [2] was 776 nM.

As to `CC1(NC(=O)c2ccc(-n3ncc(-c4ccc(C#N)cc4)c3O)nc2)CC1` [Example 198, 6-(4-(4-cyanophenyl)-5-hydroxy-1H-pyrazol-1-yl)-N-(1-methylcyclopropyl)nicotinamide], the “PHD Inhibition (pIC50)” value in assay [1] was determined as 7.35. Also, the EC50 in assay [2] is 741 nM.

On to `CCOCCNC(=O)c1ccc(-n2ncc(-c3ccc(C#N)cc3C)c2O)nc1` [Example 126, 6-(4-(4-cyano-2-methylphenyl)-5-hydroxy-1H-pyrazol-1-yl)-N-(2-ethoxyethyl)nicotinamide], for which, in assay [1], the “PHD Inhibition (pIC50)” value turned out to be 7.24. Also, the EC50 in assay [2] is 380 nM.

Consider `Cc1c(-c2cnn(-c3ccc(C(=O)N4CCCN(C5CC5)CC4)cn3)c2O)ccc(C#N)c1F` [Example 323, 4-(1-(5-(4-cyclopropyl-1,4-diazepane-1-carbonyl)pyridin-2-yl)-5-hydroxy-1H-pyrazol-4-yl)-2-fluoro-3-methylbenzonitrile], for which the “PHD Inhibition (pIC50)” value in assay [1] amounted to 8.33. In addition, the EC50 in assay [2] is 1820 nM.

Regarding `Cc1cc(C#N)ccc1-c1cnn(-c2ccc(C(=O)NC(C)C)cn2)c1O` [Example 128, 6-(4-(4-cyano-2-methylphenyl)-5-hydroxy-1H-pyrazol-1-yl)-N-isopropylnicotinamide], the “PHD Inhibition (pIC50)” value in assay [1] turned out to be 7.04. The EC50 in assay [2] was 145 nM.
